Source: US20210196738A1, “PHARMACEUTICAL COMPOSITION COMPRISING A COLLOIDAL DISPERSION AND A THERAPEUTIC AGENT AND METHODS AND USES THEREOF” (priority 2017, published 2021)
Entries after “also recorded” stand apart in the source; their conditions may differ. Like-named read-outs stand apart in the source and are kept apart here.

Legend:
[1] = test system: E. coli K-12 MG1655 (DA4201); experiment: AgSol-antibiotic synergy screening assay / MIC (Ag/Antibiotic screen); format: cell-based, Escherichia coli; conditions: for Antibiotic MIC, NB + AgSol1000: antibiotic in combination with AgSol1000 at ¼ × MIC silver; for Fold change (antibiotic MIC, NB vs NB + AgSol1000): dash = MIC unchanged; for fold increase in effect with AgSol vs antibiotic alone: Table 6, E. coli
Experimental: (§1) The MIC (Minimal Inhibitory Concentration) of a bacterium to a certain antimicrobial agent gives a quantitative estimate of the susceptibility. MIC is defined as the lowest concentration of antimicrobial agent required to inhibit growth of the organism. The principle is simple: Agar plates, tubes or microtitre trays with two-fold dilutions of antibiotics are inoculated with a standardized inoculum of the bacteria and incubated under standardized conditions following NCCLS guidelines. The next day, the MIC is recorded as the lowest concentration of antimicrobial agent with no visible growth. The MIC informs you about the degree of resistance and might give you important information about the resistance mechanism and the resistance genes involved. MIC-determination performed as agar dilution is regarded as the gold standard for susceptibility testing (Source: Global Salm-Surv—A global Salmonella surveillance and laboratory support project of the World Health Organization (4th Ed. April 2002, modified November 2010))
(§2) The Minimum Inhibitory Concentration (MIC) of nanosilver (silver) was determined by two-fold dilution series in NaCl free Nutrient Broth (Sigma-Aldrich) in 15 ml screw cap tubes. The tubes were incubated in the dark over night at 37° C. without shaking. The MIC was determined as the lowest concentration of nanosilver (silver) at which no visible growth was observed.
(§3) Antibiotic stock solutions were serially diluted in 2-fold steps in pre-warmed (37° C.) nutrient broth (NB) to prepare an antibiotic concentration gradient above and below the minimal inhibitory concentration (MIC) of antibiotic (Table 4). 50 μl of prepared dilutions were aliquoted into a 96-well round bottom plate (Nunc, Thermo Fisher) for the screening assay.
(§4) Silver formulation (AgSol1000 (particles with 19 Ag per silica particle), AgSol300 (particles with 6 Ag per silica particle, AgNO3), aluminum coated silica beads (159/500 (silica particles with aluminium silicate coating)) and uncoated silica beads (15/500) were diluted in pre-warmed (37° C.) NB. Bindzil®15/500 is an unmodified silica sol, whereas Bindzil®159/500 is a aluminosilicate modified silica sol. Bindzil® is sold by Akzo Nobel AB.
(§5) 40 μl of the prepared dilutions were added to the 96-well plate containing antibiotic gradient to reach the final silver concentration of ¼×MICAgSol (silver) (specific for the microorganism used) (Table 5).
(§6) Overnight (16-20 h) cultures of 3 biological replicates of the following microorganisms E. coli K-12 MG1655 (DA4201), E. coli K-12 MG1655 rpsL K42N (DA49828), Pseudomonas aeruginosa PAO1 (DA6215) or Staphylococcus aureus USA300 JE2 (DA28823) were grown in NB till saturation (37° C. incubator with 190 rpm shaking). Cultures were diluted in NB to 10^7 CFU/ml and 10 μl of the dilution were added to the 96-well plate containing antibiotic gradient and silver formulations or the bead controls to reach the final concentration of 10^5 CFU/well in 100 μl total volume per well. 3 technical replicates (3 wells) of specific antibiotic concentration in combination with silver and microorganism were used. A control plate containing bacterial cells mixed with only antibiotic gradient was always included too.
(§7) The prepared plate was incubated in 37° C. incubator without shaking in the dark for 16-20 h and the optical density (OD620) of each well was measured in plate reader Multiscan FC (Thermo Fisher).

[2] = test system: Pseudomonas aeruginosa PAO1 (DA6215); experiment: AgSol-antibiotic synergy screening assay / MIC; format: cell-based
Experimental: as §1, §2, §3, §4, §5, §6, §7

[3] = test system: gentamicin-resistant P. aeruginosa (DA60255); experiment: AgSol-antibiotic synergy screening assay / MIC, gentamicin-resistant strain; format: cell-based, Pseudomonas aeruginosa; conditions: AgSol1000 at 0.25×MIC; FIG. 9
[4] = test system: Pseudomonas aeruginosa PAO1 (DA6215); experiment: Time-kill assay; format: cell-based; conditions: for time-kill: effect of gentamicin in combination with AgSol: 0-48 h, FIGS. 8A, 8B
Experimental: (§8) Antibiotic stock solutions were diluted in pre-warmed (37° C.) nutrient broth (NB) to prepare 2×MIC concentration (Table 4) of antibiotic in the final volume of 2 ml in 15 ml tubes (Sarstedt).
(§9) Silver formulation (AgSol1000, AgNO3) was diluted in pre-warmed (37° C.) NB and added to the tube containing antibiotic to reach the final silver concentration of ¼×MICAgsol (silver) (Table 5) in the final volume of 2 ml.
(§10) Overnight (16-20 h) cultures of 2 biological replicates of the following microorganisms Pseudomonas aeruginosa PAO1 (DA6215) or Staphylococcus aureus USA300 JE2 (DA28823) were grown in NB till saturation (37° C. incubator with 190 rpm shaking). Cultures were diluted (1/100) in pre-warmed (37° C.) NB and incubated in 37° C. incubator with 190 rpm shaking until they reached exponential growth phase (OD600˜0.2). Final concentration of approximately 10^6 CFU/ml of exponentially dividing cells was used in the total volume of 2 ml mixture of antibiotic and silver formulation. Control tubes with only bacterial cells or bacterial cells mixed with only antibiotic or only silver formulation were also used.
(§11) All tubes were incubated in 37° C. water bath with 150 rpm shaking and 100 μl samples were taken out at pre-determined time points for viable counts (2 technical replicates). CFU counts were normalized to the 0 h sample and were plotted as a function of time (h).
(§12) A “Time Kill” test was performed with S. aureus USA3000 JE2 and Fusidic acid (FUS) and Mupirocin (MUP) and with P. aeruginosa (PAO1) with gentamicin (GEN). From a stock solution with bacteria with controlled growth at 37° C. during 16 h, […] were prepared: • Bacterial cells • Bacterial cells+AgSol • Bacterial cells+AgNO3; • Bacterial cells+AgSol+antibiotic • Bacterial cells+AgNO3+antibiotic
(§13) Samples were taken after 0, 4, 8, 24 and 48 hours at 37° C. (incubation with shaking). The samples were plated for viable counts, CFU counts normalized to 0 h and plotted as a function of time.

[5] = test system: Salmonella enterica Typhimurium LT2; experiment: Highly sensitive competition experiments (resistant vs wild type); format: cell-based; conditions: 50% sensitive / 50% Streptomycin-resistant bacteria; silver at 0.25×MIC; FIG. 1
Experimental: as §2

[6] = test system: S. enterica Typhimurium LT2; experiment: AgSol-antibiotic synergy screening assay; format: cell-based, Salmonella enterica; conditions: Streptomycin or Rifampicin; FIGS. 2A-2F
Experimental: as §3, §4, §5, §7

[7] = test system: Staphylococcus aureus USA300 JE2 (DA28823); experiment: AgSol-antibiotic synergy screening assay / MIC; format: cell-based; conditions: for effect of antibiotic when adding AgSol: S. aureus (USA300 JE2), FIGS. 4 and 5; for MIC: Staphylococcus aureus, USA300, antibiotic alone, S. aureus (DA28823), values used for antibiotic gradient
Experimental: as §1, §2, §3, §4, §5, §6, §7

[8] = test system: Staphylococcus aureus USA300 JE2 (DA28823); experiment: Time-kill assay; format: cell-based; conditions: antibiotic 2×MIC, silver ¼×MIC; FIG. 7A-B
Experimental: as §8, §9, §10, §11, §12, §13

[9] = Escherichia coli, MG1655, antibiotic alone, E. coli (DA4201), values used for antibiotic gradient, read-out: MIC
[10] = Escherichia coli, MG1655, antibiotic alone, nutrient broth, read-out: Antibiotic MIC, NB

Row | Molecule | MIC [1, 9] [µg/mL] | MIC [1, 10] [µg/mL] | Antibiotic MIC, NB + AgSol1000 ([1]; nutrient broth) [µg/mL] | Fold change (antibiotic MIC, NB vs NB + AgSol1000) [1] [x] | also measured
1 | O=C(N[C@H](CO)[C@H](O)c1ccc([N+](=O)[O-])cc1)C(Cl)Cl [Chloramphenicol] | 3 | 3 | 1.5 | 2 | 
2 | CC1(C)S[C@@H]2[C@H](NC(=O)[C@H](N)c3ccccc3)C(=O)N2[C@H]1C(=O)O [Ampicillin] | 4 | 4 | 2 | 2 | 
3 | CO/N=C(\C(=O)N[C@@H]1C(=O)N2C(C(=O)O)=C(COC(C)=O)CS[C@H]12)c1csc(N)n1 [Cefotaxime] | 0.094 | 0.094 | 0.047 | 2 | 
4 | Gentamicin |  |  | 0.03 | 17 | fold increase in effect with AgSol vs antibiotic alone ([1]; listed as Gentamycin): 17 fold; MIC ([1]; antibiotic alone, E. coli (DA4201), values used for antibiotic gradient): 0.5 µg/mL; Antibiotic MIC, NB ([1]; antibiotic alone, nutrient broth): 0.5 µg/mL; synergistic effect of gentamicin in combination with AgSol ([2]; P. aeruginosa (PAO1), FIG. 3): −50%; synergistic anti-bacterial effect of antibiotic in combination with colloidal dispersion ([2]; P. aeruginosa, FIGS. 3, 8, 9): synergistic anti-bacterial effect; MIC ([2]; antibiotic alone, P. aeruginosa (DA6215), values used for antibiotic gradient): 0.375 µg/mL; effect on bacteria (OD620) of combination silver/gentamicin ([2]; gentamicin 0.19 ug/ml with silver): complete killing of bacteria; effect on OD620 of gentamicin alone ([2]; gentamicin 0.19 ug/ml without silver): almost no reduction in OD620; anti-bacterial effect of AgSol and gentamycin on resistant strain [3]: confirmed the anti-bacterial effect; time to almost complete killing (bactericidal effect), gentamicin in combination with AgSol [4]: ≤ 24 h; time-kill: effect of gentamicin in combination with AgSol [4]: no bacterial growth is visible within 48 hours; time-kill: effect of gentamicin in combination with AgSol ([4]; listed as GEN): even stronger bactericidal effect
5 | O=[N+]([O-])[O-].[Ag+] [AgNO3, silver nitrate] |  |  |  |  | effect of silver source in combination with Streptomycin [5]: synergistic effect; effect of silver formulation in combination with antibiotics vs silica particles 159/500 and 15/500 [6]: improved effect
6 | O=C(O)c1cn(C2CC2)c2cc(N3CCNCC3)c(F)cc2c1=O [Ciprofloxacin] | 0.012 | 0.012 | 0.012 |  | 
7 | CC(=O)O[C@H]1C[C@@]2(C)[C@@H](C[C@@H](O)[C@H]3[C@@]4(C)CC[C@@H](O)[C@@H](C)[C@@H]4CC[C@@]32C)/C1=C(\CCC=C(C)C)C(=O)O [Fusidic acid] |  |  |  |  | effect of antibiotic when adding AgSol [7]: synergistic anti-bacterial effect; also recorded: there was an effect; MIC [7]: 0.12 µg/mL; time-kill: action of antibiotic in combination with AgSol [8]: bacteriostatic
8 | CO[C@H]1/C=C/O[C@@]2(C)Oc3c(C)c(O)c4c(O)c(c(/C=N/N5CCN(C)CC5)c(O)c4c3C2=O)NC(=O)/C(C)=C\C=C\[C@H](C)[C@H](O)[C@@H](C)[C@@H](O)[C@@H](C)[C@H](OC(C)=O)[C@@H]1C [Rifampicin] | 3 | 3 | 3 |  | 
9 | CC[C@H]1OC(=O)[C@H](C)[C@@H](O[C@H]2C[C@@](C)(OC)[C@@H](O)[C@H](C)O2)[C@H](C)[C@@H](O[C@@H]2O[C@H](C)C[C@H](N(C)C)[C@H]2O)[C@](C)(O)C[C@@H](C)C(=O)[C@H](C)[C@@H](O)[C@]1(C)O [Erythromycin] | 48 | 48 | 48 |  | 
10 | CN(C)[C@@H]1C(O)=C(C(N)=O)C(=O)[C@@]2(O)C(O)=C3C(=O)c4c(O)cccc4[C@@](C)(O)[C@H]3C[C@@H]12 [Tetracycline] | 1 | 0.5 | 0.5 |  | 
11 | C/C(=C\C(=O)OCCCCCCCCC(=O)O)C[C@@H]1OC[C@H](C[C@@H]2O[C@H]2[C@@H](C)[C@H](C)O)[C@@H](O)[C@H]1O [Mupirocin] |  |  |  |  | effect of antibiotic when adding AgSol [7]: synergistic anti-bacterial effect; also recorded: there was an effect; MIC [7]: 0.12 µg/mL; time-kill: action of antibiotic in combination with AgSol [8]: bacteriostatic
12 | CN[C@@H]1[C@H](O)[C@H](NC)[C@H]2O[C@@]3(O)C(=O)C[C@@H](C)O[C@H]3O[C@@H]2[C@H]1O [Spectinomycin] | 12 | 12 | 6 | 2 | 
13 | NC[C@H]1O[C@H](O[C@H]2[C@H](O)[C@@H](O[C@H]3O[C@H](CO)[C@@H](O)[C@H](N)[C@H]3O)[C@H](N)C[C@@H]2N)[C@H](N)C[C@@H]1O [Tobramycin] | 0.75 | 0.75 | 0.047 | 16 | fold increase in effect with AgSol vs antibiotic alone [1]: 16 fold
14 | NC[C@H]1O[C@H](O[C@H]2[C@H](O)[C@@H](O[C@H]3O[C@H](CO)[C@@H](O)[C@H](N)[C@H]3O)[C@H](N)C[C@@H]2N)[C@H](O)[C@@H](O)[C@@H]1O [Kanamycin] | 0.5 | 0.5 | 0.12 | 4 | 
